From US11608341B2, “Substituted tetrahydropyrazolo[3,4-d]pyrimidines and tetrahydropyrazolo[4,3-d]pyrimidines as C5A receptor modulators” (Idorsia Pharmaceuticals Ltd., priority 2018, dated 2023)

The compounds below were run against T1, C5AR1 (Homo sapiens, UniProt P21730) (assay: In vitro assay: antagonism of C5a-induced beta-arrestin recruitment (PathHunter) in CHO-K1 C5AR1 beta-arrestin cell line). Details: antagonistic activity, 1-10 nM C5a agonist, geometric mean where several measurements, read-out: C5aR IC50.
T1 construct: host or cells: CHO-K1
T1 sequence (P21730 1-350): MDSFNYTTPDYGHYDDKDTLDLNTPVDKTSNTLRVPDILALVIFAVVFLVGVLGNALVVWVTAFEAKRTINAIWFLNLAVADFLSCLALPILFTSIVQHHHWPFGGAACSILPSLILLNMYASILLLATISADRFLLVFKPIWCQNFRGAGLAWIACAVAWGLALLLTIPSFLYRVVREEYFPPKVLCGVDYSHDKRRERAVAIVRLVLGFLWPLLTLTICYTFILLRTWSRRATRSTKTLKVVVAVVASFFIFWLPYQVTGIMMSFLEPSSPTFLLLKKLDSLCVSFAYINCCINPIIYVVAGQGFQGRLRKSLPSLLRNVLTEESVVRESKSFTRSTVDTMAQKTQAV
Type: cell-based
How it was run: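 Antagonist or DMSO added first, then C5a (1-10 nM, added at 6-fold end concentration), 1.5 h at 37 °C. PathHunter detection reagent was added for 45 min at RT before plate reading. IC50s come from antagonist serial dilutions in nmol/l and are geometric means of several measurements.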

Compound | IC50 [nM]
Cc1cccc(F)c1N1CCC(N2Cc3cn(C4CC4)nc3N(Cc3ccccc3C(F)(F)F)C2=O)CC1 [Example 174] | 7
Cc1cccc(F)c1N1CCC(N2Cc3nn(C4CC4)cc3N(Cc3ccccc3C(F)(F)F)C2=O)CC1 [Example 175] | 14
Cc1cccc(F)c1N1CCC(N2Cc3nn(CC(C)(C)F)cc3N(Cc3ccccc3C(F)(F)F)C2=O)CC1 [Example 176] | 16
Cc1cccc(F)c1N1CCC(N2Cc3c(cnn3CC(C)(C)F)N(Cc3ccccc3C(F)(F)F)C2=O)CC1 [Example 177] | 48
Cc1cccc(F)c1N1CCC(N2Cc3nn(CC4CC4)cc3N(Cc3ccccc3C(F)(F)F)C2=O)CC1 [Example 178] | 16
Cc1cccc(F)c1N1CCC(N2Cc3c(cnn3CC3CC3)N(Cc3ccccc3C(F)(F)F)C2=O)CC1 [Example 179] | 152
Cc1cccc(F)c1N1CCC(N2Cc3nn(CC4(C)CC4)cc3N(Cc3ccccc3C(F)(F)F)C2=O)CC1 [Example 180] | 11
Cc1cccc(F)c1N1CCC(N2Cc3c(cnn3CC3(C)CC3)N(Cc3ccccc3C(F)(F)F)C2=O)CC1 [Example 181] | 50
CCn1cc2c(n1)CN(C1CCN(c3c(C)cccc3F)CC1)C(=O)N2Cc1ccccc1C(F)(F)F [Example 182] | 30
Cc1cccc(F)c1N1CCC(N2Cc3nn(C(C)(C)C)cc3N(Cc3ccccc3C(F)(F)F)C2=O)CC1 [Example 183] | 22
Cc1cccc(F)c1N1CCC(N2Cc3nn(CC4(F)CC4)cc3N(Cc3ccccc3C(F)(F)F)C2=O)CC1 [Example 184] | 9
Cc1cccc(F)c1N1CCC(N2Cc3nn(C(C)C)cc3N(Cc3ccccc3C(F)(F)F)C2=O)CC1 [Example 191] | 4
C=C(C)n1cc2c(n1)CN(C1CCN(c3c(C)cccc3F)CC1)C(=O)N2Cc1ccccc1C(F)(F)F [Example 192] | 4
Cc1cccc(F)c1N1CCC(N2Cc3c[nH]nc3N(Cc3ncccc3C(F)(F)F)C2=O)CC1 [Example 193] | 14
Cc1cccc(F)c1N1CCC(N2Cc3cn(CC(C)(F)F)nc3N(Cc3ncccc3C(F)(F)F)C2=O)CC1 [Example 194] | 5
Cc1cccc(F)c1N1CCC(N2Cc3nn(COCC[Si](C)(C)C)cc3N(Cc3ccccc3C(F)(F)F)C2=O)CC1 [Example 195] | 45
COc1nccc(C)c1N1CCC(N2Cc3cn(COCC[Si](C)(C)C)nc3N(Cc3ccccc3C(F)(F)F)C2=O)CC1 [Example 196] | 11
COc1nccc(C)c1N1CCC(N2Cc3c[nH]nc3N(Cc3ccccc3C(F)(F)F)C2=O)CC1 [Example 197] | 17
Cc1cccc(F)c1N1CCC(N2Cc3nn(CC(C)(F)F)cc3N(Cc3ccccc3C(F)(F)F)C2=O)CC1 [Example 198] | 13
Cc1cccc(F)c1N1CCC(N2Cc3nn(COCC[Si](C)(C)C)cc3N(Cc3ncccc3C(F)(F)F)C2=O)CC1 [Example 199] | 32
Cc1cccc(F)c1N1CCC(N2Cc3cn(CC4(F)CC4)nc3N(Cc3ncccc3C(F)(F)F)C2=O)CC1 [Example 200] | 4
COc1nccc(C)c1N1CCC(N2Cc3cn(CC4(F)CC4)nc3N(Cc3ccccc3C(F)(F)F)C2=O)CC1 [Example 201] | 6

Compound | IC50 [nM]
Cc1cccc(F)c1N1CCC(N2Cc3n[nH]cc3N(Cc3ncccc3C(F)(F)F)C2=O)CC1 [Example 204] | 23
COc1nccc(C)c1N1CCC(N2Cc3cn(CC(C)(F)F)nc3N(Cc3ccccc3C(F)(F)F)C2=O)CC1 [Example 205] | 8
Cc1cccc(F)c1N1CCC(N2Cc3nn(CC4(F)CC4)cc3N(Cc3ncccc3C(F)(F)F)C2=O)CC1 [Example 208] | 3
COc1nccc(C)c1N1CCC(N2Cc3cn(C4CC4)nc3N(Cc3ccccc3C(F)(F)F)C2=O)CC1 [Example 209] | 5
Cc1cccc(F)c1N1CCC(N2Cc3cnn(CC4CC4)c3N(Cc3ccccc3C(F)(F)F)C2=O)CC1 [Example 210] | 46
Cc1cccc(F)c1N1CCC(N2Cc3nn(C4CC4)cc3N(Cc3ncccc3C(F)(F)F)C2=O)CC1 [Example 212] | 10
Cc1cccc(F)c1N1CCC(N2Cc3cn(C4CC4)nc3N(Cc3c(Br)cccc3C(F)(F)F)C2=O)CC1 [Example 213] | 53
Cc1cccc(F)c1N1CCC(N2Cc3cn(CC(C)(F)F)nc3N(Cc3c(Br)cccc3C(F)(F)F)C2=O)CC1 [Example 214] | 87
Cc1cccc(F)c1N1CCC(N2Cc3c(cnn3C3CC3)N(Cc3ncccc3C(F)(F)F)C2=O)CC1 [Example 215] | 146
COc1nccc(C)c1N1CCC(N2Cc3c(cnn3COCC[Si](C)(C)C)N(Cc3ccccc3C(F)(F)F)C2=O)CC1 [Example 216] | 41
Cc1cccc(F)c1N1CCC(C)(N2Cc3cn(C)nc3N(Cc3ccccc3C(F)(F)F)C2=O)CC1 [Example 217] | 11
COc1nccc(C)c1N1CCC(N2Cc3n[nH]cc3N(Cc3ccccc3C(F)(F)F)C2=O)CC1 [Example 218] | 12
COc1nccc(C)c1N1CCC(N2Cc3nn(CC(C)(F)F)cc3N(Cc3ccccc3C(F)(F)F)C2=O)CC1 [Example 219] | 38
COc1nccc(C)c1N1CCC(N2Cc3nn(CC4(F)CC4)cc3N(Cc3ccccc3C(F)(F)F)C2=O)CC1 [Example 222] | 19
COc1nccc(C)c1N1CCC(N2Cc3nn(C4CC4)cc3N(Cc3ccccc3C(F)(F)F)C2=O)CC1 [Example 223] | 32
COc1nccc(C)c1N1CCC(N2Cc3nn(C)cc3N(Cc3ccccc3C(F)(F)F)C2=O)CC1 [Example 224] | 76
COCn1cc2c(n1)N(Cc1ccccc1C(F)(F)F)C(=O)N(C1CCN(c3c(C)ccnc3OC)CC1)C2 [Example 227] | 10
Cc1cccc(F)c1N1CCC(N2Cc3cn(C)nc3N(Cc3ccccc3C3CC3)C2=O)CC1 [Example 228] | 10
Cc1nn(C)c(N2CCC(N3Cc4cn(C)nc4N(Cc4ccccc4C(F)(F)F)C3=O)CC2)c1C#N [Example 229] | 550
Cc1cccc(F)c1N1CCC(N2Cc3c(cnn3COCC[Si](C)(C)C)N(Cc3ncccc3C(F)(F)F)C2=O)CC1 [Example 230] | 37
Cc1cccc(F)c1N1CCC(N2Cc3cn(C)nc3N(Cc3ccccc3C(C)C)C2=O)CC1 [Example 231] | 17
Cc1cccc(F)c1N1CCC(N2Cc3cn(C)nc3N(Cc3ccccc3OC(F)(F)F)C2=O)CC1 [Example 232] | 16

Compound | IC50 [nM]
Cc1cccc(F)c1N1CCC(N2Cc3cn(C)nc3N(Cc3ccccc3Cl)C2=O)CC1 [Example 233] | 10
Cc1cccc(F)c1N1CCC(N2Cc3cn(C)nc3N(Cc3c(F)cc(F)cc3OC(C)C)C2=O)CC1 [Example 236] | 312
Cc1cccc(F)c1N1CCC(N2C(=O)N(Cc3ccccc3C(F)(F)F)c3cnn(COCC[Si](C)(C)C)c3C2C)CC1 (stereo not drawn) [Example 237] | 80
Cc1nn(C)c(N2CCC(N3Cc4cn(C)nc4N(Cc4ccccc4C(F)(F)F)C3=O)CC2)c1Cl [Example 238] | 166
Cn1cc2c(n1)N(Cc1ccccc1C(F)(F)F)C(=O)N(C1CCN(c3c(F)cccc3C(F)(F)F)CC1)C2 [Example 243] | 28
Cn1cc2c(n1)N(Cc1ccccc1C(F)(F)F)C(=O)N(C1CCN(c3c(F)cccc3OC(F)(F)F)CC1)C2 [Example 244] | 16
Cc1cccc(Cl)c1N1CCC(N2Cc3cn(C)nc3N(Cc3ccccc3C(F)(F)F)C2=O)CC1 [Example 245] | 16
Cc1cccc(F)c1N1CCC(N2Cc3cn(C)nc3N(Cc3ccccc3OCC3CC3)C2=O)CC1 [Example 248] | 16
Cc1cccc(F)c1N1CCC(N2Cc3cn(C)nc3N(Cc3cncnc3C(C)C)C2=O)CC1 [Example 249] | 69
Cc1cccc(F)c1N1CCC(N2Cc3cn(C)nc3N(Cc3ccccc3OC3COC3)C2=O)CC1 [Example 250] | 10
Cc1cccc(F)c1N1CCC(N2Cc3cn(C)nc3N(Cc3ccccc3OC(C)C)C2=O)CC1 [Example 251] | 9
CCOc1ccccc1CN1C(=O)N(C2CCN(c3c(C)cccc3F)CC2)Cc2cn(C)nc21 [Example 252] | 9
CC(C)c1ccccc1N1CCC(N2Cc3cn(C)nc3N(Cc3ccccc3C(F)(F)F)C2=O)CC1 [Example 257] | 9
Cn1cc2c(n1)N(Cc1ccccc1C(F)(F)F)C(=O)N(C1CCN(c3ccccc3C3CC3)CC1)C2 [Example 258] | 14
Cc1cccc(F)c1N1CCC(N2Cc3nn(C)cc3N(Cc3ccccc3C3CC3)C2=O)CC1 [Example 259] | 49
Cc1cccc(F)c1N1CCC(N2Cc3nn(C)cc3N(Cc3ccccc3C(C)C)C2=O)CC1 [Example 260] | 40
Cc1cccc(F)c1N1CC(N2Cc3cn(C)nc3N(Cc3ccccc3C(F)(F)F)C2=O)C1 [Example 264] | 216
Cc1cccc(F)c1N1CCC(N2Cc3cn(C)nc3N(Cc3nnccc3OC(C)C)C2=O)CC1 [Example 267] | 201
Cc1cccc(F)c1N1CCC(N2C(=O)N(Cc3ccccc3C3CC3)c3cn(C4CCCCO4)nc3C2C)CC1 (stereo not drawn) [Example 268] | 72
COc1nccc(C)c1N1CCC(N2C(=O)N(Cc3ccccc3C3CC3)c3cn(C4CCCCO4)nc3C2C)CC1 (stereo not drawn) [Example 269] | 193
Cn1cc2c(n1)CN(C1CCN(c3c(F)cccc3OC(F)(F)F)CC1)C(=O)N2Cc1ccccc1C(F)(F)F [Example 270] | 54
Cn1cc2c(n1)CN(C1CCN(c3c(F)cccc3C(F)(F)F)CC1)C(=O)N2Cc1ccccc1C(F)(F)F [Example 271] | 51
